Here are results for eight compounds from US11034650B2, “Compounds useful for treating a Mannheimia haemolytica or Histophilus somni infection” (Intervet Inc., priority 2016, dated 2021).

What all share (type): cell-based
Assay [1] deals with Mannheimia haemolytica MH 6357 (M7/2, reference strain, cattle infection strain). In words: MIC, broth-microdilution (CLSI VET01-A4), strain MH 6357. To be noted: Mannheimia haemolytica strain MH 6357, broth-microdilution; unit assumed. The essentials: (§1)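 Compounds were serially diluted twofold in microdilution trays. Growth was judged by eye, and the MIC was the lowest concentration showing no turbidity. Results were interpreted per CLSI VET01-S3.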
A general note: Dilution methods test growth across graded concentrations, often in twofold steps.

Assay [2] relates to Mannheimia haemolytica MH 6374 (ATCC 33396, reference strain). In words: MIC, broth-microdilution (CLSI VET01-A4), strain MH 6374. The conditions noted are these: Mannheimia haemolytica strain MH 6374, broth-microdilution; unit assumed. The essentials: as §1
Assay [3] relates to Mannheimia haemolytica MH 10720 (154, BRD field isolate). The assay is described as follows: MIC, broth-microdilution (CLSI VET01-A4), strain MH 10720. To be noted: Mannheimia haemolytica strain MH 10720, broth-microdilution; unit assumed. The method in brief: as §1
Assay [4] deals with Mannheimia haemolytica MH 12587 (1071, BRD field isolate, macrolide-resistance: erm+, E+). The assay is described as follows: MIC, broth-microdilution (CLSI VET01-A4), strain MH 12587. The conditions noted are these: Mannheimia haemolytica strain MH 12587, broth-microdilution; unit assumed. The essentials: as §1
Assay [5] has as its system Mannheimia haemolytica MH 13065 (XB0446-6003.9, BRD field isolate). The assay is described as follows: MIC, broth-microdilution (CLSI VET01-A4), strain MH 13065. The conditions noted are these: Mannheimia haemolytica strain MH 13065, broth-microdilution; unit assumed. The essentials:
as §1

Assay [6] deals with Mannheimia haemolytica MH 13093 (XB0472-6014.1, BRD field isolate). The assay is described as follows: MIC, broth-microdilution (CLSI VET01-A4), strain MH 13093. To be noted: Mannheimia haemolytica strain MH 13093, broth-microdilution; unit assumed. The essentials: as §1
Assay [7] deals with Pasteurella multocida PM 6267 (P 2225 (L386), reference strain, mouse infection strain). In words: MIC, broth-microdilution (CLSI VET01-A4), strain PM 6267. The conditions noted are these: Pasteurella multocida strain PM 6267, broth-microdilution; unit assumed. The method in brief:
as §1

The test system of assay [8] is Pasteurella multocida PM 6391 (ATCC 43137, reference strain). The assay is described as follows: MIC, broth-microdilution (CLSI VET01-A4), strain PM 6391. To be noted: Pasteurella multocida strain PM 6391, broth-microdilution; unit assumed. The method in brief:
as §1

The test system of assay [9] is Pasteurella multocida PM 10775 (080130003051, BRD field isolate). The assay is described as follows: MIC, broth-microdilution (CLSI VET01-A4), strain PM 10775. The conditions noted are these: Pasteurella multocida strain PM 10775, broth-microdilution; unit assumed. The method in brief: as §1
In assay [10] the test system is Pasteurella multocida PM 12080 (IV102277-0093, BRD field isolate). In words: MIC, broth-microdilution (CLSI VET01-A4), strain PM 12080. To be noted: Pasteurella multocida strain PM 12080, broth-microdilution; unit assumed. The method in brief:
as §1

In brackets after ≈: the same amount, converted by molar mass.

In [1], `COCCNCc1ccc(C#Cc2ccc(C(=O)N[C@H](C(=O)NO)C(C)(C)O)cc2)cn1` [Compound 325] gave an MIC MH 6357 of 0.8 µg/mL (≈ 1.82 µM). This compound also had an MIC MH 6374 in assay [2] of 1.6 µg/mL (≈ 3.63 µM). In assay [3], this compound gave an MIC MH 10720 of 0.4 µg/mL (≈ 0.908 µM). Moreover, the MIC MH 12587 in [4] is 3.1 µg/mL (≈ 7.04 µM). The MIC MH 13065 in assay [5] is 1.6 µg/mL (≈ 3.63 µM). This compound also gave an MIC MH 13093 in assay [6] of 3.1 µg/mL (≈ 7.04 µM). The compound also returned an MIC PM 6267 in assay [7] of 1.6 µg/mL (≈ 3.63 µM). The MIC PM 6391 in assay [8] came out at 0.8 µg/mL (≈ 1.82 µM). In assay [9], this compound had an MIC PM 10775 of at most 0.1 µg/mL. The same compound registered an MIC PM 12080 in assay [10] of 0.8 µg/mL (≈ 1.82 µM).

In turn, `CC(C)(O)[C@H](NC(=O)c1ccc(C#Cc2ccc(CN3CCOCC3)nc2)cc1)C(=O)NO` [Compound 326] displayed an MIC MH 6357 in assay [1] of 3.1 µg/mL (≈ 6.85 µM). The compound also yielded an MIC MH 6374 in assay [2] of 6.3 µg/mL (≈ 13.9 µM). The MIC MH 10720 in assay [3] turned out to be 0.8 µg/mL (≈ 1.77 µM). The same compound yielded an MIC MH 12587 in assay [4] of 12.5 µg/mL (≈ 27.6 µM). This compound had an MIC MH 13065 in assay [5] of 3.1 µg/mL (≈ 6.85 µM). The MIC MH 13093 in assay [6] is 6.3 µg/mL (≈ 13.9 µM). The same compound had an MIC PM 6267 in assay [7] of 3.1 µg/mL (≈ 6.85 µM). In assay [8], this compound returned an MIC PM 6391 of 0.4 µg/mL (≈ 0.884 µM). Besides, in assay [9], the MIC PM 10775 was at most 0.1 µg/mL. In addition, the MIC PM 12080 in assay [10] worked out at 0.4 µg/mL (≈ 0.884 µM).

For `CC(C)(O)[C@H](NC(=O)c1ccc(C#Cc2ccc(CNCc3ccccc3)nc2)cc1)C(=O)NO` [Compound 327], the MIC MH 6357 in assay [1] came to 0.8 µg/mL (≈ 1.69 µM). The MIC MH 6374 in [2] came to 0.8 µg/mL (≈ 1.69 µM). In assay [3], this compound registered an MIC MH 10720 of at most 0.1 µg/mL. This compound came in with an MIC MH 12587 in assay [4] of 1.6 µg/mL (≈ 3.39 µM). This compound had an MIC MH 13065 in assay [5] of 0.4 µg/mL (≈ 0.846 µM). The same compound came in with an MIC MH 13093 in assay [6] of 0.8 µg/mL (≈ 1.69 µM). Moreover, the MIC PM 6267 in [7] was determined as 0.4 µg/mL (≈ 0.846 µM). Besides, the MIC PM 6391 in assay [8] is at most 0.1 µg/mL. In assay [9], the MIC PM 10775 was at most 0.1 µg/mL. Further, the MIC PM 12080 in [10] is at most 0.1 µg/mL.

In turn, `COc1ccc(CNCc2ccc(C#Cc3ccc(C(=O)N[C@H](C(=O)NO)C(C)(C)O)cc3)cn2)cc1` [Compound 328] showed an MIC MH 6357 in [1] of 0.8 µg/mL (≈ 1.59 µM). This compound also came in with an MIC MH 6374 in [2] of 0.8 µg/mL (≈ 1.59 µM). This compound also came in with an MIC MH 10720 in assay [3] of at most 0.1 µg/mL. The compound further returned an MIC MH 12587 in assay [4] of 1.6 µg/mL (≈ 3.18 µM). Also, the MIC MH 13065 in assay [5] was found to be 0.8 µg/mL (≈ 1.59 µM). This compound also yielded an MIC MH 13093 in assay [6] of 0.8 µg/mL (≈ 1.59 µM). This compound came in with an MIC PM 6267 in [7] of 0.8 µg/mL (≈ 1.59 µM). Moreover, the MIC PM 6391 in assay [8] is at most 0.1 µg/mL. Further, in assay [9], the MIC PM 10775 is at most 0.1 µg/mL. For the same compound, the MIC PM 12080 in [10] is at most 0.1 µg/mL.

For the compound `CC(C)(O)[C@H](NC(=O)c1ccc(C#Cc2ccc(CNCc3ccncc3)nc2)cc1)C(=O)NO` [Compound 329], the MIC MH 6357 in [1] is 0.8 µg/mL (≈ 1.69 µM). In [2], this compound had an MIC MH 6374 of 1.6 µg/mL (≈ 3.38 µM). The MIC MH 10720 in assay [3] was at most 0.1 µg/mL. In assay [4], this compound registered an MIC MH 12587 of 3.1 µg/mL (≈ 6.55 µM). Besides, the MIC MH 13065 in assay [5] was 0.8 µg/mL (≈ 1.69 µM). In assay [6], the MIC MH 13093 turned out to be 1.6 µg/mL (≈ 3.38 µM). The MIC PM 6267 in [7] worked out at 0.8 µg/mL (≈ 1.69 µM). Further, the MIC PM 6391 in assay [8] was 0.4 µg/mL (≈ 0.845 µM). Moreover, the MIC PM 10775 in assay [9] was at most 0.1 µg/mL. In addition, the MIC PM 12080 in assay [10] was 0.4 µg/mL (≈ 0.845 µM).

In assay [1], `CC(C)(O)[C@H](NC(=O)c1ccc(C#Cc2ccc(CNCc3cccnc3)nc2)cc1)C(=O)NO` [Compound 330] gave an MIC MH 6357 of 0.8 µg/mL (≈ 1.69 µM). For the same compound, the MIC MH 6374 in assay [2] is 0.8 µg/mL (≈ 1.69 µM). In assay [3], this compound registered an MIC MH 10720 of 0.2 µg/mL (≈ 0.422 µM). Also, in [4], the MIC MH 12587 came to 3.1 µg/mL (≈ 6.55 µM). This compound also came in with an MIC MH 13065 in assay [5] of 1.6 µg/mL (≈ 3.38 µM). Further, in [6], the MIC MH 13093 came to 1.6 µg/mL (≈ 3.38 µM). In assay [7], this compound yielded an MIC PM 6267 of 1.6 µg/mL (≈ 3.38 µM). In assay [8], this compound registered an MIC PM 6391 of 0.8 µg/mL (≈ 1.69 µM). The compound also had an MIC PM 10775 in assay [9] of at most 0.1 µg/mL. Further, in assay [10], the MIC PM 12080 turned out to be 0.4 µg/mL (≈ 0.845 µM).

`CC(C)(O)[C@H](NC(=O)c1ccc(C#Cc2ccc(CNCc3ccccn3)nc2)cc1)C(=O)NO` [Compound 331] gave an MIC MH 6357 in [1] of 1.6 µg/mL (≈ 3.38 µM). Moreover, the MIC MH 6374 in assay [2] was determined as 3.1 µg/mL (≈ 6.55 µM). The MIC MH 10720 in [3] is 0.4 µg/mL (≈ 0.845 µM). The compound further registered an MIC MH 12587 in assay [4] of 6.3 µg/mL (≈ 13.3 µM). Moreover, the MIC MH 13065 in assay [5] turned out to be 3.1 µg/mL (≈ 6.55 µM). The compound further displayed an MIC MH 13093 in [6] of 6.3 µg/mL (≈ 13.3 µM). In addition, in assay [7], the MIC PM 6267 was determined as 3.1 µg/mL (≈ 6.55 µM). Also, in assay [8], the MIC PM 6391 came out at 1.6 µg/mL (≈ 3.38 µM). In [9], this compound registered an MIC PM 10775 of 0.4 µg/mL (≈ 0.845 µM). The same compound gave an MIC PM 12080 in assay [10] of 1.6 µg/mL (≈ 3.38 µM).

`CC(C)(O)[C@H](NC(=O)c1ccc(C#Cc2ccc(CNCc3ccco3)nc2)cc1)C(=O)NO` [Compound 332] had an MIC MH 6357 in [1] of 0.4 µg/mL (≈ 0.865 µM). This compound showed an MIC MH 6374 in assay [2] of 0.4 µg/mL (≈ 0.865 µM). In [3], this compound returned an MIC MH 10720 of at most 0.1 µg/mL. Further, the MIC MH 12587 in [4] was found to be 1.6 µg/mL (≈ 3.46 µM). In assay [5], this compound came in with an MIC MH 13065 of 0.8 µg/mL (≈ 1.73 µM). In assay [6], the MIC MH 13093 turned out to be 0.8 µg/mL (≈ 1.73 µM). For the same compound, the MIC PM 6267 in assay [7] was 0.4 µg/mL (≈ 0.865 µM). In addition, in assay [8], the MIC PM 6391 was found to be 0.4 µg/mL (≈ 0.865 µM). The MIC PM 10775 in assay [9] was at most 0.1 µg/mL. This compound also returned an MIC PM 12080 in [10] of 0.2 µg/mL (≈ 0.432 µM).
